# Experiments:
# Details in all cases: Sprague-Dawley, rat, iv, 1 mg/kg
# in vivo [1] = assay: in vivo
# Description: Clearance in Sprague-Dawley rat at 1 mg/kg, iv
# in vivo [2] = assay: in vivo; remark: listed apart in the source
# Description: Half life in Sprague-Dawley rat at 1 mg/kg, iv
# in vivo [3] = assay: in vivo; remark: listed apart in the source
compound,measurement,setting,value
C[C@@H](Nc1cc(-c2c(N)nn3cccnc23)ncn1)c1ccc(F)cc1,clearance,in vivo [1],104 mL/min/kg
same,half-life,in vivo [2],54 min
same,Vd,in vivo [3],5.1 L/kg

# From ChEMBL document CHEMBL1156132, “2-Aminopyrazolo[1,5-a]pyrimidines as potent and selective inhibitors of JAK2” (Bioorg Med Chem Lett, 2009)
